Measurements from US20120083647A1, “METHOD FOR CHANGING AN INDIVIDUAL'S STATE OF CONSCIOUSNESS” (priority 2010, published 2012).

Legend:
[1] = healthy male volunteers, iv TCI; for subjects who lost consciousness at 75% of LOC: target 75% of individually determined LOC concentration; for subjects who lost consciousness at 100% of LOC: target 100% of individually determined LOC concentration; for subjects who lost consciousness at 125% of LOC: target 125% of individually determined LOC concentration
Experimental: Twenty volunteers (healthy, right-handed, 19 to 28 years old males) participated in this open, non-randomized study approved by the local ethics committee and the National Agency for Medicines. All subjects gave written informed consent. […] Subjects refrained from using alcohol or any medication for 48 hours before the study and they fasted overnight. No pre-medication was administered prior to study drug administration.
Subjects participated in two separate anesthesia sessions approximately one month apart. The first session was used to establish each subject's individual dose-response characteristics. The second session was used for neuroimaging. Subjects were anesthetized in a similar fashion on the two separate occasions. For each session, the subjects were prepared for the administration of a general anesthetic. In the first session, the individual concentrations for LOC were determined. Subjects were divided into two groups to receive either dexmedetomidine (n=10) or propofol (n=10) intravenous anesthesia via computer-controlled infusion. Once assigned to a particular anesthetic agent, that subject then again received that anesthetic during the neuroimaging session. Each infusion was started at a low rate and was then increased in a step-wise manner at 10 min intervals until LOC was detected. Consciousness was tested at 5 min intervals by asking the subjects to open their eyes. LOC was defined as being unresponsive to this request.
Dexmedetomidine (Precedex 100 μg/ml, Orion, 02200 Espoo, Finland) was administered intravenously using a target controlled infusion (TCI) scheme aiming at escalating pseudo steady-state plasma concentrations every 10 min. A Harvard 22 syringe pump (Harvard Apparatus, South Natick, Mass.) connected to a portable computer running […] software (Steven L. Schafer, M.D., Columbia University Medical Center, 622 W 168th St, PH 5-505 New York, N.Y. 10032-3725, USA) and the pharmacokinetic parameters of Talke were used (P. Talke et al., Anesthesiology 99, 65 (2003)). In the first session, the infusion was started at a target (plasma) concentration of 1.0 ng/ml, followed first by a 0.5 ng/ml target concentration increase and then by subsequent 0.25 ng/ml increases thereafter (i.e. 1.0-1.5-1.75-2.0-2.25-etc. ng/ml) until LOC was achieved.
Propofol (Propofol Lipuro 10 mg/ml, B. Braun Melsungen AG, Pfieffewiesen, D-34212 Melsungen, Germany) was administrated with the same infusion system and scheme as dexmedetomidine, using the Marsh pharmacokinetic model (B. Marsh et al., Br J Anaesth 67, 412 (1991)). In the first session, the infusion was started at a target (plasma) concentration of 1.0 μg/ml, followed first by a 0.5 μg/ml target concentration increase and then subsequent 0.25 μg/ml increases thereafter (i.e. 1.0-1.5-1.75-2.0-2.25-etc. μg/ml) until LOC was achieved.
In the second (neuroimaging) session of the study, the computer controlled drug infusion was repeated for each subject by aiming at their individually determined drug concentrations 50, 75 and 100% of the LOC concentration. Consciousness was tested similarly to the first session. If the LOC concentration defined in the first session of the study was not sufficient to produce LOC in the second session, the drug infusion was continued and an additional 25% target concentration increment was added to the rate. Concentrations were adjusted at 10 min intervals with simultaneous imaging at each level until LOC was detected.

[2] = after LOC, continuous infusion of the drug
Experimental: After LOC was reached and neuroimaging completed at that level of anesthesia, those in the propofol infusion group had the infusion terminated and the subjects were allowed to emerge from anesthesia. During the emergence process, consciousness was tested at 1 min intervals until ROC was detected. ROC was defined as eye opening in response to the command to do so. […] PET measurements were thus obtained during the four conditions: baseline, sedation, LOC and ROC for 17 subjects.

SMILES	subjects who lost consciousness at 50% of the previously measured LOC concentration value ([1]; target 50% of individually determined LOC concentration)	subjects who lost consciousness at 75% of LOC [1]	subjects who lost consciousness at 100% of LOC [1]	subjects who lost consciousness at 125% of LOC [1]	restoration of consciousness by stimulation during drug infusion [2]
Cc1cccc([C@H](C)c2cnc[nH]2)c1C [dexmedetomidine, Dexmedetomidine]	1	1	3	5	gentle tactile stimulation and/or loud voice was sufficient to restore consciousness
CC(C)c1cccc(C(C)C)c1O [propofol, Propofol]	–	2	6	1	–
